These results are taken from ChEMBL document CHEMBL5034030, “Dolabrane Diterpenoids from the Chinese Liverwort Notoscyphus lutescens” (J Nat Prod, 2021).

Activity calls are given as the source filed them. The calls are words filed in the database; no cut-off is given here. Some results are limits rather than exact numbers.

What is called IC50 is the concentration needed to halve the response being measured.

Holding throughout (type): cell-based
A short description of experiment [1]: Cytotoxicity against mouse Hepa1c1c7 cells incubated for 24 hrs by MTT based assay. Particulars: Hepa-1c1c7, 24 h. For orientation: Tetrazolium assays rely on reduction of a dye to a coloured formazan, in cell work by metabolically active cells.
Experiment [2] deals with NAD(P)H dehydrogenase [quinone] 1 (Mus musculus) (UniProt Q64669). In words: Induction of quinone reductase activity in mouse Hepa1c1c7 cells assessed as maximum fold change at 3.1 to 100 uM incubated for 24 hrs by MTT based assay. The following applies: dose 3.1-100 µM.
For experiment [3] the target is unchanged. In words: Induction of quinone reductase activity in mouse Hepa1c1c7 cells assessed as maximum fold change at 50 uM incubated for 24 hrs by MTT based assay. The following applies: filed as activator.

Sequence of NAD(P)H dehydrogenase [quinone] 1 (Mus musculus) (Q64669 whole entry): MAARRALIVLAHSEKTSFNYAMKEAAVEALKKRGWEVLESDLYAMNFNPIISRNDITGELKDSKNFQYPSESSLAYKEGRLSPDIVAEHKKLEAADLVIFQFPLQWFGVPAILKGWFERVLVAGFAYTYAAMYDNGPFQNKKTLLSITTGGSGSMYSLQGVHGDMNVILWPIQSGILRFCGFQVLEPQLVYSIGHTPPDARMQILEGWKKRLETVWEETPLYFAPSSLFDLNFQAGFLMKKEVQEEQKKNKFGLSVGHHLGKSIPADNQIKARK

Molecule `C=C[C@@]1(C)CC[C@@]2(C)[C@@H](CC[C@@]3(C)[C@@H]2CCC(=O)[C@@H]3C)C1` returned an IC50 in experiment [1] above 50 µM. In experiment [2], the result was inactive.
For the molecule `C=C[C@@]1(C)CC[C@]2(C)C3=C(CC[C@H]2C1)[C@](O)(CO)[C@@H](O)[C@H](Cl)C3`, in experiment [1], the IC50 was above 50 µM. The result in experiment [3] was Active.
In experiment [1], `C=C[C@@]1(C)CC[C@@]2(C)[C@@H](CC[C@]34CO[C@H](OC)C3=C[C@@H](O)C[C@@H]42)C1` registered an IC50 above 50 µM. Besides, the outcome in experiment [2] was inactive.
Regarding `CC1=C(Cc2ccccc2)C(=O)O[C@H]1Cc1ccccc1`, the IC50 in experiment [1] was above 50 µM. In addition, the result in experiment [2] was inactive.
For `C=C[C@@]1(C)CC[C@@]2(C)[C@@H](C[C@@H]3[C@@H](O)C4=C[C@@H](O)C[C@H]2[C@@]43C)C1`, in that order: above 50 µM and “inactive”.
The matching figures for `C=C[C@@]1(C)CC[C@@]2(C)[C@@H](CC[C@]34CO[C@@H](OC)C3=C[C@@H](O)C[C@@H]42)C1`: above 50 µM and “inactive”.
`C=C[C@@]1(C)CC[C@@]2(C)[C@@H](CC[C@]34COC(=O)[C@@H]3C[C@H](O)C[C@H]24)C1` displayed an IC50 in experiment [1] above 50 µM. Also, in experiment [3], the result was Active.
For `C=C[C@@]1(C)CC[C@]2(C)C3C[C@H]4C=C(CO)[C@]3(CC[C@H]2C1)C(OC)O4` (stereo not given in full), in that order: above 50 µM and “Active”.
`C=C[C@@]1(C)CC[C@@]2(C)[C@@H](CC=C3[C@@H]2C[C@@H](Cl)[C@H](O)[C@@]3(O)CO)C1` displayed an IC50 in experiment [1] above 50 µM. The result in experiment [2] was inactive.
`C=C[C@@]1(C)CC[C@]2(C)C3C[C@H]4C=C(C=O)[C@]3(CC[C@H]2C1)C(O)O4` (stereo not given in full): the IC50 in experiment [1] is above 50 µM. Moreover, the result in experiment [3] was Active.
